Assay results published in patent US12617783B2, “Heterocyclic GLP-1R agonists” (BIOMEA FUSION, INC., priority 2024, dated 2026).

Target: T1, human GLP-1R (Homo sapiens, UniProt P43220)
T1 construct: host or cells: HEK293
Test: GLP-1R cAMP assay (Example B1a, HTRF, 30 min at room temperature)
Assay type: cell-based
Conditions: Table 1c, comparative compound; read-out: EC50
Method in brief: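 Competitive HTRF read-out of cAMP after 30 min room-temperature stimulation, BETP absent, of human GLP-1R-HEK293 cells (1,000/well) in HEPES buffer with 500 μM IBMX and 0.1% BSA. Activation normalised to GLP-1(7-37) positive control. EC50 from 4-parameter non-linear regression.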

T1 sequence (P43220 24-463): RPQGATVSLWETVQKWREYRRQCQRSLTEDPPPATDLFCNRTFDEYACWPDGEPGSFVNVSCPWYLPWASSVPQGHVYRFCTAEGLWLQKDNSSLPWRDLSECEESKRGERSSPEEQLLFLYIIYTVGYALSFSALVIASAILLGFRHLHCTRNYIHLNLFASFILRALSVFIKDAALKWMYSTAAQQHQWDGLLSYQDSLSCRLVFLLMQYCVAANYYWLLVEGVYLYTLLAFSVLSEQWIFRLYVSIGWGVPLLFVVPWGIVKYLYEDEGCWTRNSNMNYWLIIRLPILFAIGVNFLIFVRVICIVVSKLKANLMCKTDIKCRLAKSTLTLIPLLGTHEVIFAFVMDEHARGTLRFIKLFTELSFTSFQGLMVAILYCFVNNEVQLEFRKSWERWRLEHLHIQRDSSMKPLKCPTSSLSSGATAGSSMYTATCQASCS

With CCP(=O)(CC)c1ccc(-n2ccn(-c3c4c(nn3-c3cc(C)c(F)c(C)c3)CCN(C(=O)c3cc5cc(C6CCOCC6)ccc5n3[C@@]3(c5noc(=O)[nH]5)C[C@@H]3C)[C@H]4C)c2=O)cc1NC [Compound 405] the EC50 was 11.4 nM.

Same assay, conditions: cAMP accumulation in HEK293 expressing human GLP-1R, no BETP, 30 min room temperature (Method B1a, compounds ID 1-609), Table 1; read-out: EC50

Cc1cc(-n2nc3c(c2-n2ccn(-c4ccc5c(cnn5C)c4F)c2=O)CN(S(=O)(=O)c2cc4cc(C5CCOC(C)(C)C5)ccc4n2[C@@]2(c4noc(=O)[nH]4)C[C@@H]2C)CCC3)cc(C)c1F (stereo partly drawn) [Compound 508, 3-[(1S,2S)-1-[5-(2,2-dimethyltetrahydropyran-4-yl)-2-[[2-(4-fluoro-3,5-dimethyl-phenyl)-3-[3-(4-fluoro-1-methyl-indazol-5-yl)-2-oxo-imidazol-1-yl]-4,6,7,8-tetrahydropyrazolo[4,3-c]azepin-5-yl]sulfonyl]indol-1-yl]-2-methyl-cyclopropyl]-4H-1,2,4-oxadiazol-5-one] and Cc1cc(-n2nc3c(c2-n2ccn(-c4ccc5c(cnn5C)c4F)c2=O)[C@@H]2CC[C@H](C3)N2C(=O)c2nc3cc(C4CCOC(C)(C)C4)ccc3n2C2(c3noc(=O)[nH]3)CC2)cc(C)c1F (stereo partly drawn) [Compound 130, 3-[1-[5-(2,2-dimethyltetrahydropyran-4-yl)-2-[(1S,8R)-4-(4-fluoro-3,5-dimethyl-phenyl)-3-[3-(4-fluoro-1-methyl-indazol-5-yl)-2-oxo-imidazol-1-yl]-4,5,11-triazatricyclo[6.2.1.02,6]undeca-2,5-diene-11-carbonyl]benzimidazol-1-yl]cyclopropyl]-4H-1,2,4-oxadiazol-5-one] cannot be ordered by EC50: at least 10000 nM for the first, over 10000 nM for the second.

Compared with CCP(=O)(CC)c1ccc(-n2ccn(-c3c4c(nn3-c3cc(C)c(F)c(C)c3)C[C@H]3CC[C@@H]4N3C(=O)c3cc4cc([C@H]5CCOC(C)(C)C5)ccc4n3[C@@]3(c4noc(=O)[nH]4)C[C@@H]3C)c2=O)cc1NC [Compound 203, 3-[(1S,2S)-1-[2-[(1S,8R)-3-[3-[4-diethylphosphoryl-3-(methylamino)phenyl]-2-oxo-imidazol-1-yl]-4-(4-fluoro-3,5-dimethyl-phenyl)-4,5,11-triazatricyclo[6.2.1.02,6]undeca-2,5-diene-11-carbonyl]-5-[(4S)-2,2-dimethyltetrahydropyran-4-yl]indol-1-yl]-2-methyl-cyclopropyl]-4H-1,2,4-oxadiazol-5-one], Cc1cc(-n2nc3c(c2-n2ccn(-c4ccc5c(cnn5C)c4)c2=O)[C@@H]2CC[C@H](C3)N2C(=O)c2cc3cc([C@H]4CCOC(C)(C)C4)ccc3n2[C@@]2(c3noc(=O)[nH]3)C[C@@H]2C)cc(C)c1F [Compound 302, 3-((1S,2S)-1-(5-((S)-2,2-dimethyltetrahydro-2H-pyran-4-yl)-2-((4S,7R)-2-(4-fluoro-3,5-dimethylphenyl)-3-(3-(1-methyl-1H-indazol-5-yl)-2-oxo-2,3-dihydro-1H-imidazol-1-yl)-2,4,5,6,7,8-hexahydro-4,7-epiminocyclohepta [c]pyrazole-9-carbonyl)-1H-indol-1-yl)-2-methylcyclopropyl)-1,2,4-oxadiazol-5 (4H)-one] is 17-fold lower in EC50: 919 nM for the first, 52.9 nM for the second. The second is the more potent here.

Cc1cc(-n2nc3c(c2-n2ccn(-c4ccc5cnncc5c4)c2=O)[C@@H]2CC[C@H](C3)N2C(=O)c2cc3cc([C@H]4CCOC(C)(C)C4)ccc3n2[C@@]2(c3noc(=O)[nH]3)C[C@@H]2C)cc(C)c1F [Compound 127, 3-((1S,2S)-1-(5-((S)-2,2-dimethyltetrahydro-2H-pyran-4-yl)-2-((4S,7R)-2-(4-fluoro-3,5-dimethylphenyl)-3-(2-oxo-3-(phthalazin-6-yl)-2,3-dihydro-1H-imidazol-1-yl)-2,4,5,6,7,8-hexahydro-4,7-epiminocyclohepta [c]pyrazole-9-carbonyl)-1H-indol-1-yl)-2-methylcyclopropyl)-1,2,4-oxadiazol-5 (4H)-one] gave an EC50 of 381 nM.
